Test results as given in US20090088461A1, “Methods of Treating or Preventing Cardiac Disease Associated With a High Fat Diet” (Synvista Therapeutics, Inc., priority 2007, published 2009).

How the values were obtained:
Format in all cases: in vivo
[1] = system: PPARα, CD36, intra-myocardial triacylglycerol; assay: Assessment of lipid metabolism in HF-fed mice; details: for Gene expression PPAR alpha: HF diet, real time RT-PCR
Description: Adult (8-week-old) male […] mice (Precinct Animal Centre, Melbourne, Australia) and RAGE knockout (KO) mice^17 ([…] al., J Clin Invest. 113:1641-50, 2004) were housed in a temperature-controlled room on a 12-h light-dark cycle. Mice were placed on either a standard diet (AIN-93G; Specialty feeds, Perth AUS; n=10/group) or a high fat (HF) diet formulated to mimic a “Western fast food diet”, (SF05-031, Specialty Feeds; n=10). Both diets contained the same vitamin and calorie content. […] Animals receiving a HF diet were further randomized to receive alagebrium chloride at a dose of 1 mg/kg/day delivered by oral gavage. All groups were followed for 16 weeks. Changes in myocardial energy metabolism, due to altered substrate handling, characterize obesity-related cardiac disease^5 (Boudina and Abel, Circulation 115:3213-23, 2007). In particular, intra-myocardial accumulation of triacylglycerol metabolites mediated by activation of peroxisome proliferator activated receptor α(PPARα) has been strongly associated with cardiac dysfunction in rodents fed a HF diet^20 (Ouwens et al., Diabetologia 48:1229-37, 2005). To assess the interaction of AGE/RAGE with lipotoxicity pathways in this model, the ventricular expression of PPARα and the fatty acid translocase, CD36, were assessed by real-time quantitative RT-PCR. Intra-myocardial accumulation of triacylglycerol metabolites was assessed by staining with Oil red-O in frozen cardiac sections and quantitated in cardiac homogenates extracted using the method of Bligh and Dyer and measured using a standard commercial enzymatic assay.

[2] = system: superoxide production in left ventricular homogenates (gp91^phox, RAC-1, heme oxygenase); assay: Assessment of superoxide production in HF-fed mice
Description: Adult (8-week-old) male […] mice (Precinct Animal Centre, Melbourne, Australia) and RAGE knockout (KO) mice^17 ([…] al., J Clin Invest. 113:1641-50, 2004) were housed in a temperature-controlled room on a 12-h light-dark cycle. Mice were placed on either a standard diet (AIN-93G; Specialty feeds, Perth AUS; n=10/group) or a high fat (HF) diet formulated to mimic a “Western fast food diet”, (SF05-031, Specialty Feeds; n=10). Both diets contained the same vitamin and calorie content. […] Animals receiving a HF diet were further randomized to receive alagebrium chloride at a dose of 1 mg/kg/day delivered by oral gavage. All groups were followed for 16 weeks. The production and accumulation of superoxide and other ROS is a key mediator of […] injury and cellular dysfunction associated with high fat feeding^5 (Boudina and Abel, Circulation 115:3213-23, 2007). […] Following incubation for 60 min at 37° C., before the rate of superoxide anion formation was determined by the addition of 3.8 μM lucigenin (bis-N-methylacridinium nitrate). […] The expression of the NADPH subunits, NOX-2 (gp91^phox), p47^phox, NOX-4 and RAC-1 in left ventricular homogenates, along with the expression of heme oxygenase (HO) and glutathione peroxidase (GPX), key defence mechanism against oxidative stress, were further assessed by real-time quantitative RT-PCR, as detailed above.

[3] = system: AGEs (CML), S100 A8/A9, RAGE, AGE-R1, AGE-R3; assay: Accumulation of RAGE ligands and AGE receptor expression in HF-fed mice; details: for Gene expression RAGE: Wild-type mice, HF diet, real time RT-PCR, control = 1
Description: Adult (8-week-old) male […] mice (Precinct Animal Centre, Melbourne, Australia) and RAGE knockout (KO) mice^17 ([…] al., J Clin Invest. 113:1641-50, 2004) were housed in a temperature-controlled room on a 12-h light-dark cycle. Mice were placed on either a standard diet (AIN-93G; Specialty feeds, Perth AUS; n=10/group) or a high fat (HF) diet formulated to mimic a “Western fast food diet”, (SF05-031, Specialty Feeds; n=10). Both diets contained the same vitamin and calorie content. […] Animals receiving a HF diet were further randomized to receive alagebrium chloride at a dose of 1 mg/kg/day delivered by oral gavage. All groups were followed for 16 weeks. […] Cardiovasc Diabetol. 5:6, 2006) was also assessed by commercial ELISA.

Cc1sc[n+](CC(=O)c2ccccc2)c1C.[Cl-] [alagebrium chloride, 3-(2-phenyl-2-oxoethyl)-4,5-dimethylthiazolium chloride]
intramyocardial accumulation of lipid (Oil-red O staining, cardiac triglyceride content) ([1]; HF-fed mice (FIG. 1)): unaffected
Expression of the fatty acid translocase, CD36 ([1]; HF-fed mice, RT-PCR): similar
Gene expression PPAR alpha ([1]; RAGE KO mice): reduced
Gene expression PPAR alpha ([1]; RAGE KO mice, listed as AL): 1.2 ± 0.3 AU/18s
Gene expression PPAR alpha ([1]; Wild-type mice): reduced
Gene expression PPAR alpha ([1]; Wild-type mice, listed as AL): 1.9 ± 0.4 AU/18s
Gene expression relative to 18S (AU/18s) ([2]; RAGE KO mice, HF diet, real time RT-PCR, listed as AL): 0.1 ± 0.1 AU/18s
NADH-dependent (mitochondrial) superoxide production in cardiac homogenates ([2]; both wild type and RAGE KO mice, HF diet (FIG. 4)): significantly reduced
increase in S100 A8/A9 following HF feeding ([3]; HF-fed mice, ELISA (FIG. 3)): attenuated
Gene expression RAGE [3]: prevented
Gene expression RAGE ([3]; listed as AL): 1.0 ± 0.2 AU/18s
AGE accumulation (ELISA for CML-modified protein) ([3]; both wild type and RAGE KO mice, HF diet (FIG. 3)): markedly reduced
